Read-outs that look alike come from different tables or passages of the source.
Tests used:
PKCa = PKCa (Homo sapiens (Human), UniProt P17252); assay: PKCa phosphorylation activity; assay type: biochemical; conditions: 10 uM ATP
Description: (§1) Phosphorylation of activity of ROCK1 and ROCK2 and those of other kinases, AKT1, GRK2, PKA, PKCa and RSK1 were performed by Reaction Biology (Malvern, Pa.) (Ma et al., 2008) The ROCK1 enzyme tested was GST[1-535] ROCK1 (Genbank, NP 005397), ROCK2 was GST[5-554] (Genbank, 3327051). For the kinase assay buffers contained 20 mM Hepes, 10 mM MgCl2, 2 mM DTT, 0.02 mg/mL BSA, 0.1% DMSO, 1 mM EGTA, 0.02% Brij-35, 10 uM ATP, [γP^33]-ATP and for ROCK enzymes, 20 uM long S6-peptide (32 amino acids length). Appropriate substrates and activation was applied for the other kinases tested. Each enzyme was preincubated with test compound for 15 min., and the reaction started by addition of ATP. Samples were incubated at room temperature for 120 min, and applied to P81 ion exchange paper and washed extensively; the radioactive content of the filters were determined. […] Selectivity ratio is the value for PKA/ROCK2.

[1] = test system: p-MYPT1 phosphorylation in PANC-1 cells; assay: Intracellular MYPT1 phosphorylation assay in PANC-1 cells; assay type: cell-based, H. sapiens; conditions: Homo sapiens
Description: Intracellular MYPT1 phosphorylation assay used the procedures of Garton et al. with minor modifications (Garton et al. Methods Enzymol. 2008; 439:491-500). PANC-1 cells (ACTT, CRL-1469), 18×10^3/well, grown over night in DMEM medium supplemented with 4.5 g/L glucose, L-glutamine, sodium pyruvate and 10% FBS at 37° C. Compounds were applied to the cells for one hour (DMSO final 1%) and the cells were then lysed. Phosphorylated-MYPT1 was detected using plate immobilized anti-MYPT1 antibody (BD Biosciences, cat. 612165), anti-phospo-MYPT1([…]), US Biological, cat. M9925-08) and secondary HRP-conjugated goat anti-rabbit IgG antibody (Jackson Laboratories, cat. 111-035-003), phospho-MYPT1 was quantified using color formed by the tetramethylbenzidine (TMB) HRP substrate.

ROCK2 [2] = target: T1, ROCK2 (Homo sapiens (Human), UniProt O75116); assay: Kinase binding panel (KINOMEscan), ROCK2; conditions: table under Kinase Binding Panel
Description: (§2) Kinase inhibition potency was measured using KINOMEscan™ technology across 402 human kinases [Fabian et al., Nat Biotechnol. 2005 March; 23(3):329-36] (DiscoverRx, Inc., (Fremont, Calif.)). The assay is based on a competition binding assay which quantitatively measures the ability of a compound to compete with an immobilized, active-site directed ligand. […] 2008 January; 26(1):127-32; Fabian et al., Nat Biotechnol. 2005 March; 23(3):329-36]. The assay is performed by combining three components: DNA-tagged kinase; immobilized ligand; and a test compound. Binding reactions were assembled by combining, for 1 hr at room temperature, kinases, liganded affinity beads, and test compounds in binding buffer (20% SeaBlock, 0.17×PBS, 0.05% Tween-20, 6 mM DTT). The assay plates were washed and then re-suspended in elution buffer for 30 min. (PBS, 0.05% Tween 20, 0.5 μM non-biotinylated affinity ligand). The kinase concentration in the eluates was measured by qPCR.
Target sequence in this assay (O75116 whole entry): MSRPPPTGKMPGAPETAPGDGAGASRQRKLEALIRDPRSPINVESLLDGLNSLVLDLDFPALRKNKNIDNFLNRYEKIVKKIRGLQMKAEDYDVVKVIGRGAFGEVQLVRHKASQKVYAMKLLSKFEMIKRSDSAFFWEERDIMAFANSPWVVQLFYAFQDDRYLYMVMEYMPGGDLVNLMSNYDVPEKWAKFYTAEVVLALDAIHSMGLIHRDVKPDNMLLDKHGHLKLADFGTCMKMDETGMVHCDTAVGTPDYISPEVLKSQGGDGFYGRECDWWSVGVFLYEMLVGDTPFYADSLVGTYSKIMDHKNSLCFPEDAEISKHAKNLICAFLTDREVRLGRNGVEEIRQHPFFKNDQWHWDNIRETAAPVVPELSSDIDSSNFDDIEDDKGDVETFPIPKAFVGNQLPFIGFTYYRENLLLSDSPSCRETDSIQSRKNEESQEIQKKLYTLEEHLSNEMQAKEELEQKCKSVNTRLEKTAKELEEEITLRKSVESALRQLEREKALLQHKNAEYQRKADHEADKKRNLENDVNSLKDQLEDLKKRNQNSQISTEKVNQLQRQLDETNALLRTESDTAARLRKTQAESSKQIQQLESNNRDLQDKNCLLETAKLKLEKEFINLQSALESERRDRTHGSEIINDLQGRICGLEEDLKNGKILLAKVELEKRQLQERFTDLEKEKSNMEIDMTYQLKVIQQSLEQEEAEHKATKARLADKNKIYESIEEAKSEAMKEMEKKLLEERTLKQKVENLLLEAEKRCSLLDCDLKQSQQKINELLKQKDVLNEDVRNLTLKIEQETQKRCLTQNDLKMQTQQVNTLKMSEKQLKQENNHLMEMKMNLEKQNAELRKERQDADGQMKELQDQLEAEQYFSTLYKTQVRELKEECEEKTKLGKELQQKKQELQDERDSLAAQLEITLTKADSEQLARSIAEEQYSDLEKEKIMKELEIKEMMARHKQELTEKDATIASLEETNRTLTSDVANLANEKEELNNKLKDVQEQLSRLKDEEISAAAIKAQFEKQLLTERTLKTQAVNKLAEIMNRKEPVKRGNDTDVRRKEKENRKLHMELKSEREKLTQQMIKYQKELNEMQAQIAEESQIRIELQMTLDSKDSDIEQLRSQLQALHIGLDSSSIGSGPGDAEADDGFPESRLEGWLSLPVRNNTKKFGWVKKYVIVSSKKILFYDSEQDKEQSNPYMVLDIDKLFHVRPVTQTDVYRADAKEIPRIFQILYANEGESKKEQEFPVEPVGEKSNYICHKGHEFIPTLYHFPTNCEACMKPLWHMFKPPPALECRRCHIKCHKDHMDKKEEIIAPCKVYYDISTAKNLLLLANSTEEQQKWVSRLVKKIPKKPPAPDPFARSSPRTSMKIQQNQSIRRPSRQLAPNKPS

RSK1 = RSK1 (Homo sapiens (Human), UniProt Q15418); assay: RSK1 phosphorylation activity; assay type: biochemical; conditions: 10 uM ATP
Description: as §1

ROCK2 [3] = target: T1, ROCK2; assay: ROCK2 phosphorylation activity (Reaction Biology, radiometric); assay type: biochemical; conditions: for IC50: 10 uM ATP
Description: as §1
Target sequence in this assay (O75116 5-554): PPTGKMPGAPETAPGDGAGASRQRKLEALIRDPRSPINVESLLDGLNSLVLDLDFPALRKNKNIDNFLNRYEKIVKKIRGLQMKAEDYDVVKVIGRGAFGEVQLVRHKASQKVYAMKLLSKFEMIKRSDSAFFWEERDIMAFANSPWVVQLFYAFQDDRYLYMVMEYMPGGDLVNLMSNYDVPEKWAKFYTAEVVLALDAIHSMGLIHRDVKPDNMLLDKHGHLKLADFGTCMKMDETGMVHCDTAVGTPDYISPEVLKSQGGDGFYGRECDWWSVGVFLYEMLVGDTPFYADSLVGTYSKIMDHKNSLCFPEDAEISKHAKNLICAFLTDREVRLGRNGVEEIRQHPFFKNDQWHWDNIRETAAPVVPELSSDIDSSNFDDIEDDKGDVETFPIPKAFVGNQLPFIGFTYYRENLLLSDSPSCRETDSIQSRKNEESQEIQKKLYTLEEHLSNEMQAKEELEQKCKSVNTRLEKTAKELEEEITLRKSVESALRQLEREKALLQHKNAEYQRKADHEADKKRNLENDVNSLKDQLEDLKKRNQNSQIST

PKA = PKA (Homo sapiens (Human), UniProt P17612); assay: PKA phosphorylation activity; assay type: biochemical; conditions: 10 uM ATP
Description: as §1

[4] = test system: TNF-a secretion from LPS stimulated hPBMC; assay: Inhibition of TNF-a secretion from LPS stimulated hPBMC; assay type: cell-based, human; conditions: LPS for 24 hours
Description: Measurement of the inhibition of cytokine secretion from stimulated human peripheral blood mononuclear cells by drugs was performed as described in Dong C. et al., J Pharmacol Exp Ther. 2013 February; 344(2):436-46; and Akama T. et al., Bioorg Med Chem Lett. 2013 Mar. 15; 23(6):1680-3. Briefly PBMC were incubated with drug, and stimulators; LPS for 24 hours to release TNF-α, and IL-6; PHA for 24 hours, to release IL-2 and IFN-γ, and PHA for 48 hours, to release IL-5 and IL-13. The cell culture supernatants were collected for cytokine determinations using Cisbio HTRF cytokine determination kits. Compounds were prepared using an eight point 1:10 dilution series starting at 10 or 100 uM; the resulting dose-response curves were fit to the four parameter sigmoid equation.

ROCK1 [5] = target: T2, ROCK1 (Homo sapiens (Human), UniProt Q13464); assay: Kinase binding panel (KINOMEscan), ROCK1; conditions: table under Kinase Binding Panel
Description: as §2
Target sequence in this assay (Q13464 whole entry): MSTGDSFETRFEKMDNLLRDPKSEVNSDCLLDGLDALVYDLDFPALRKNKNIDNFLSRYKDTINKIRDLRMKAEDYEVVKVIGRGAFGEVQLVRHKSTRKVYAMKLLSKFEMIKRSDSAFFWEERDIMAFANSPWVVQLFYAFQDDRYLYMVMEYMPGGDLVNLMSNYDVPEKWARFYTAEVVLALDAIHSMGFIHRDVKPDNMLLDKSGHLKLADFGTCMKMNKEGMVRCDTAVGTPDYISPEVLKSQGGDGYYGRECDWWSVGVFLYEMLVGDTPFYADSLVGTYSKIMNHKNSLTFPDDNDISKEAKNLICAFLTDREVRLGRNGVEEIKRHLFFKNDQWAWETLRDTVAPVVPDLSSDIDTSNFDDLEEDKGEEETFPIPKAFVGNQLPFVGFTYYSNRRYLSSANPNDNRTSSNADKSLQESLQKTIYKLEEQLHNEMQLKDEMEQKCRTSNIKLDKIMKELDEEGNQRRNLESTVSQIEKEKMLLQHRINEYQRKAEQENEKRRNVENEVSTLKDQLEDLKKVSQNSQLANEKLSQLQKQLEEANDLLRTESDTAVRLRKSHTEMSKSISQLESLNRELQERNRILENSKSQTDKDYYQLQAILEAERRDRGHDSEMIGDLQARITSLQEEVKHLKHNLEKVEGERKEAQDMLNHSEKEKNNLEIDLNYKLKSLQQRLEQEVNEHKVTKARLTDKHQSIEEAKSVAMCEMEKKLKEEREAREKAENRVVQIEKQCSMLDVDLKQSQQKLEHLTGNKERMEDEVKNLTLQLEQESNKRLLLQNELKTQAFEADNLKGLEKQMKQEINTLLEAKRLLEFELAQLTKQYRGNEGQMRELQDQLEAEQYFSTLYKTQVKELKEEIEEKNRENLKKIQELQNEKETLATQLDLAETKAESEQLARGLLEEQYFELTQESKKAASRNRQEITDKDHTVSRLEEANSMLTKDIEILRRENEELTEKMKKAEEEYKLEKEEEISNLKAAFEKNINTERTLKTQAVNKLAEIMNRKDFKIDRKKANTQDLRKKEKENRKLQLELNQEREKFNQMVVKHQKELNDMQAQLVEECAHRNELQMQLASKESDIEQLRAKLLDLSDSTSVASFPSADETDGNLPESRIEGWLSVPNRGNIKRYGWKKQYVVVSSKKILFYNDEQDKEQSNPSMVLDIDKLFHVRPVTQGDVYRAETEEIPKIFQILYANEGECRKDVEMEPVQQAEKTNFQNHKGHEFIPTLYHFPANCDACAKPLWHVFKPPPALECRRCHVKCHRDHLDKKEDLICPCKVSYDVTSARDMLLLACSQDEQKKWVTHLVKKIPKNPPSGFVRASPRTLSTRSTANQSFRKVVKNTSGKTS

GRK2 = GRK2 (Homo sapiens (Human), UniProt P25098); assay: GRK2 phosphorylation activity; assay type: biochemical; conditions: 10 uM ATP
Description: as §1

ROCK1 [6] = target: T2, ROCK1; assay: ROCK1 phosphorylation activity (Reaction Biology, radiometric); assay type: biochemical, H. sapiens
Description: as §1
Target sequence in this assay (Q13464 1-535): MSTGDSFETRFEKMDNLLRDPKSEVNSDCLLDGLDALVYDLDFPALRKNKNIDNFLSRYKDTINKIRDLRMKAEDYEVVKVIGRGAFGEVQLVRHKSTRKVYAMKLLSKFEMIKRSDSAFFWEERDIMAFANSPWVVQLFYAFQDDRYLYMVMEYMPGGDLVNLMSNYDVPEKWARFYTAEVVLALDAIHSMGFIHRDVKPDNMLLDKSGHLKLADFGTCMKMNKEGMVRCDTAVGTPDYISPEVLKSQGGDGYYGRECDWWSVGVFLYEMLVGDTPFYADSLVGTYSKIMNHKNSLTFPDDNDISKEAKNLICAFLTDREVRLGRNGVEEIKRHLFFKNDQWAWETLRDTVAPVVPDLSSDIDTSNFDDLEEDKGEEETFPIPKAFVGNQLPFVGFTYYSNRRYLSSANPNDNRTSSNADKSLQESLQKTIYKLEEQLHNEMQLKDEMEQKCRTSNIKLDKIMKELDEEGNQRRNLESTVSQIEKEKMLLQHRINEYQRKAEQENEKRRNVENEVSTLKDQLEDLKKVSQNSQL

AKT1 = AKT1 (Homo sapiens (Human), UniProt P31749); assay: AKT1 phosphorylation activity; assay type: biochemical; conditions: 10 uM ATP
Description: as §1

[7] = PANC-1 cells, .0417 days (compounds applied for one hour), read-out: IC50: Inhib p-MYPT1 Phosphorylation in H. sapiens PANC-1 cells, .0417 days
[8] = read-out: IC50: ROCK1: H. sapiens
[9] = read-out: Inhibition of hROCK1 Phosphorylation [IC50
[10] = 10 uM ATP, read-out: ROCK1 IC50

Sequence of AKT1 (P31749 whole entry, species assumed): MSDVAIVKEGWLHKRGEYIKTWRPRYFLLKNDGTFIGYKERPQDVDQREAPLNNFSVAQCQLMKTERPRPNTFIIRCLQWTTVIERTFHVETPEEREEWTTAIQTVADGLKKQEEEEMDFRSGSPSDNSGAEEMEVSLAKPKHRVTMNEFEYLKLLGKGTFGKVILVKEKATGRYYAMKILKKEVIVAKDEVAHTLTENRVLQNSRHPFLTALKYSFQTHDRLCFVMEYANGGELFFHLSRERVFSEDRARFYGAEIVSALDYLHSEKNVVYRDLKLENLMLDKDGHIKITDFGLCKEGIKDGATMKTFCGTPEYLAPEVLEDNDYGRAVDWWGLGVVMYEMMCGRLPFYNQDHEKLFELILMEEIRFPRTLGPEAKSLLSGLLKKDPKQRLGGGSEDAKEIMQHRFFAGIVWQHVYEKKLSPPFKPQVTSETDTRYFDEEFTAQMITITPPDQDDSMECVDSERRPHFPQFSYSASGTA

IC50 (PKCa) [µM] | IC50 (ROCK2 [2]) [µM] | IC50 (RSK1) [µM] | SELECTIVITY RATIO (ROCK2 [3]; value for PKA/ROCK2) | IC50 (PKA) [µM] | IC50 ([4]; Homo sapiens, 24 h) [µM] | IC50 (ROCK1 [5]) [µM] | IC50 (GRK2) [µM] | IC50 (ROCK1 [6]; [9]) [µM] | IC50 (AKT1) [µM] | IC50 (ROCK2 [3]) [µM] | IC50 (ROCK1 [6]; [10]) [µM] | IC50 ([4]; Homo sapiens) [µM] | Structure (SMILES) | IC50 [1, 7] [µM] | IC50 (ROCK1 [6]; [8]) [µM] | IC50 ([1]; PANC-1, read-out: IC50: Inhib p-MYPT1 Phosphorylation in H. sapiens PANC-1 cells, .0417 days [uM]) [µM] | S[…] (ROCK2 [3]; value for PKA/ROCK2) | IC50 [4] [µM]
> 30 | 0.664 | 25 | 11.87 | 7.88 |  | 0.72 | > 30 | 0.72 | > 30 | 0.66 |  |  | Cc1c(Oc2cccc(CNC(=O)OC(C)(C)C)c2F)ccc2c1B(O)OC2 [L, tert-butyl 2-fluoro-3-(1-hydroxy-7-methyl-1,3-dihydrobenzo[c][1,2]oxaborol-6-yloxy)benzylcarbamate] |  |  |  |  | 
> 30 | 0.216 | 5.19 | 15.65 | 3.38 |  | 0.247 | > 30 | 0.247 | > 30 | 0.22 | 0.25 |  | Cc1c(Oc2cccc(CN)c2F)ccc2c1B(O)OC2 [M, 6-(3-(aminomethyl)-2-fluorophenoxy)-7-methylbenzo[c][1,2]oxaborol-1(3H)-ol] |  |  |  |  | 
> 20 | 0.45 | > 50 | >111 | > 50 | 12 | 0.54 | > 20 | 0.54 | > 30 |  |  |  | CC(N)c1ccc(Oc2ccc3c(c2)B(O)OC3)c(F)c1.Cl (stereo not shown) [C, 6-(4-(1-aminoethyl)-2-fluorophenoxy)benzo[c][1,2]oxaborol-1(3H)-ol] | 48.1 | 0.54 |  |  | 
 | 16 |  |  |  |  | 23 |  | 11 |  |  |  | 99 | NCc1ccc(Oc2ccc3c(c2Cl)B(O)OC3)c(Cl)c1 [B, 6-(4-(aminomethyl)-2-chlorophenoxy)-7-chlorobenzo[c][1,2]oxaborol-1(3H)-ol] |  |  |  |  | 
10.8 | 0.0472 | 0.195 | 1.17 | 0.055 |  | 0.0596 |  | 0.596 | 4.22 | 0.047 | 0.06 | 5.63 | CC(C)c1c(Oc2ccc(CN)cc2Cl)ccc2c1B(O)OC2 [N, 6-(4-(aminomethyl)-2-chlorophenoxy)-7-isopropylbenzo[c][1,2]oxaborol-1 (3H)-ol] |  |  |  |  | 
 | 0.25 |  |  |  |  | 0.29 |  | 0.29 |  |  |  | 3.61 | CCc1c(Oc2ccc(CN)cc2Cl)ccc2c1B(O)OC2 [A, 6-(4-(Aminomethyl)-2-chlorophenoxy)-7-ethylbenzo[c][1,2]oxaborol-1(3H)-ol] |  |  |  |  | 
> 20 | 0.25 | 5.01 | 16.29 | 4.06 | 12.3 | 0.34 | > 20 | 0.34 | 9.25 |  |  |  | Cc1c(Oc2ccc(CN)cc2F)ccc2c1B(O)OC2 [D, 6-(4-(aminomethyl)-2-fluorophenoxy)-7-methylbenzo[c][1,2]oxaborol-1(3H)-ol] | 18.2 | 0.34 |  |  | 

Structure (SMILES) | IC50 (PKCa) [µM] | IC50 (ROCK2 [2]) [µM] | IC50 (RSK1) [µM] | SELECTIVITY RATIO (ROCK2 [3]; value for PKA/ROCK2) | IC50 (PKA) [µM] | IC50 ([4]; Homo sapiens, 24 h) [µM] | IC50 (ROCK1 [5]) [µM] | IC50 (GRK2) [µM] | IC50 (ROCK1 [6]; [9]) [µM] | IC50 (AKT1) [µM] | IC50 (ROCK2 [3]) [µM] | IC50 (ROCK1 [6]; [10]) [µM] | IC50 ([4]; Homo sapiens) [µM] | IC50 [1, 7] [µM] | IC50 (ROCK1 [6]; [8]) [µM] | IC50 ([1]; PANC-1, read-out: IC50: Inhib p-MYPT1 Phosphorylation in H. sapiens PANC-1 cells, .0417 days [uM]) [µM] | S[…] (ROCK2 [3]; value for PKA/ROCK2) | IC50 [4] [µM]
Cc1c(Oc2ccc(C(C)N)cc2F)ccc2c1B(O)OC2 (stereo not shown) [E, 6-(4-(1-aminoethyl)-2-fluorophenoxy)-7-methylbenzo[c][1,2]oxaborol-1(3H)-ol] | > 20 | 0.25 | 8.31 | 24.74 | 6.09 | 5.4 | 0.42 | > 20 | 0.42 | 21.5 |  |  |  | 39.7 | 0.42 |  |  | 
Cc1c(Oc2ccc(C(C)N)cc2F)ccc2c1B(O)OC2 (single isomer, unassigned) [G] | 15.6 | 0.17 | 3.62 |  | 1.79 |  | 0.17 | 13.9 | 0.17 | 10.9 |  |  |  |  | 0.17 | 18.7 | 10.40 | 5.18
Cc1c(Oc2ccc(C(C)N)cc2F)ccc2c1B(O)OC2.Cl (single isomer, unassigned) [F] | > 20 | 0.51 | 17.2 | 21.51 | 11 |  | 0.54 | > 20 | 0.54 | 44.1 |  |  |  | 56.4 | 0.54 |  |  | 20.5
